Results reported in patent US20160177395A1, “BIOMARKERS FOR THE PREDICTION OF RENAL INJURY” (priority 2007, published 2016).
Values joined by “and” are separate entries in the source; they are usually repeats but may differ in a detail not shown here. Equal values may be shown once.

What was measured:
[1] = system: kidney tissues of treated or untreated rats; assay: Real-time qRT-PCR of signature amplicons, validation stage, labeled and un-labeled samples (Table 23); conditions: for H31883_DB71_seg13 normalized qRT-PCR result / MUSCYCG1R_DB81_seg19-20 normalized qRT-PCR result / W41270_DB81_seg11 normalized qRT-PCR result: labeled sample, one line per animal
Description: New primers were designed for part of the transcripts, and new conditions for several qRT-PCR reactions were used, as described below.
The measurements were normalized in two steps. First—according to the house-keeping-genes normalization factor, and second—each plate was normalized according to ratio of the intensity measurements from samples appearing in it and in the shuffled (normalization) plate (Table 25 provides the plates details and the section “Inter-Plate Normalization” provides details of the normalization process). The normalized values were further scaled by a factor, for ease of viewing.
RT was prepared and qRT-PCR performed and analyzed as described hereinabove. qRT-PCR was performed for the four genes comprising the signature of the discovery stage described in Table 13. Two amplicons were tested for each gene—one representing the wild-type transcript, and another representing an alternative splice variant. Each amplicon was measured using the labeled samples described in Table 9 herein, as well as the un-labeled samples. Samples from both groups (labeled and un-labeled) were tested in seven 96 well plates as described in Table 25. In order to correct possible run to run variations, the following controls were added: 1. several samples were repeated in all 96 wells plates; 2. control shuffled plate was designed which combined samples from all seven test plates.
To account for possible differences of qRT-PCR measurements between the different plates due to experimental artifacts, a normalization plate was planned. This plate, designated hereinabove ‘shuffled plate’, contained samples from all other plates. Real Time PCR was performed on this plate using the primers appropriate for all candidates in tables 26 and 27. For each other plate (plates 1-7 above) and each amplicon, the samples appearing also in the shuffled plate were examined—the ratio between the transcript abundance as measured in the plate to the abundance as measured in the shuffled plate was calculated, outliers were manually removed, and the geometric mean of the left ratios was taken as an additional multiplicative normalization factor for the plate and amplicon.

[2] = system: kidney tissues of treated or untreated rats; assay: Real-time qRT-PCR of marker transcripts in kidney tissue panel, discovery stage (Table 22); type: in vivo, rat; conditions: listed as Dox; for normalized Real Time PCR MMU09507_DB81_seg15: kidney
Description: Before RT preparation the RNA was treated with DNA-free (Ambion, cat. No. AM1906) DNase treatment and removal—according to manufacturer protocol. DNase procedure was repeated until no DNA is detected in a PCR reaction using the RNA samples.
The mixture is then incubated for 5 min at 65° C. and then quickly chilled on ice. Thereafter, 20 μl of 5× SuperscriptII first strand buffer (Invitrogen, Cat. No. Y00146), 9.6 μl 0.1M DTT (Invitrogen, Cat. No. Y00147) and 160 units RNasin (Promega, Cat. No. N251A) are added, and the mixture is incubated for 10 min at 25° C., followed by further incubation at 42° C. for 2 min. […] The resulting cDNA is diluted 1:20 in TE buffer (10 mM Tris pH=8, 1 mM EDTA pH=8).
cDNA (5 μl), prepared as described above, is used as a template in Real-Time PCR reactions using the SYBR Green I assay (PE Applied Biosystem) with specific primers in 100 nM concentration if not indicated otherwise and UNG Enzyme (Eurogentech or equal) Amplification is effected as follows: 50° C. for 2 min, 95° C. for 10 min, and then 40 cycles of 95° C. for 15 sec, followed by 60° C. for 1 min (if not indicated otherwise). Amplification step is followed by dissociation step. Detection is performed by using the PE Applied Biosystem SDS 7000. The cycle in which the reactions achieved a threshold level (Ct) of fluorescence is registered and is used to calculate the relative transcript quantity in the RT reactions. Non-detected samples are assigned Ct value of 41 and are calculated accordingly. The relative quantity is calculated using the equation Q=efficiencŷ-Ct. The efficiency of the PCR reaction is calculated from a standard curve, created by using serial dilutions of several reverse transcription (RT) reactions. To minimize inherent differences in the RT reaction, the resulting relative quantities are normalized to normalization factor calculated as follows: […]
The relative quantity (Q) of each housekeeping gene in each sample is calculated as described above. In order to calculate the “relative Q relative to MED” each Q for each HSKP gene is divided by the median quantity of this gene in all panel samples. To finally achieve the normalization factor of each sample the geometric mean of all four “relative Q relative to MED” was calculated. The normalization factor was then used for further calculations.
The markers of the present invention were tested with regard to their expression in a panel of kidney tissues samples from treated and control rats. Unless otherwise noted, all experimental data relates to the novel polynucleotides and proteins of the present invention, named according to the segment being tested (as expression was tested through RT-PCR as described). Tests were then performed as described in the “Materials and Experimental Procedures” section above.
The qRT-PCR measurements were normalized according to each samples normalization factor as described in “RT Preparation and Real-Time qRT-PCR Analysis” and further multiplied by a constant factor for ease of viewing.

[3] = day1, female rat kidney, listed as Dox
[4] = day1, male rat kidney, listed as Dox
[5] = day28, female rat kidney, listed as Dox
[6] = day28, male rat kidney, listed as Dox
[7] = labeled samples, day1, kidney of individual male/female rats, listed as Dox
[8] = labeled samples, day5, kidney of individual male/female rats, listed as Dox
[9] = labeled samples, day28, kidney of individual male/female rats, listed as Dox
[10] = rat kidney, day1, individual animals (F and M)

COc1cccc2c1C(=O)c1c(O)c3c(c(O)c1C2=O)C[C@@](O)(C(=O)CO)C[C@@H]3O[C@H]1C[C@H](N)[C@H](O)[C@H](C)O1 [Doxorubicin]
H31883_DB71_seg13 normalized qRT-PCR result [1, 3]: 2.054 and 1.752 and 1.003 | MUSCYCG1R_DB81_seg19-20 normalized qRT-PCR result [1, 3]: 1.631 and 1.268 and 0.741 | W41270_DB81_seg11 normalized qRT-PCR result [1, 3]: 1.548 and 1.367 and 0.977 | H31883_DB71_seg13 normalized qRT-PCR result [1, 4]: 0.956 and 0.936 and 0.964 | MUSCYCG1R_DB81_seg19-20 normalized qRT-PCR result [1, 4]: 1.257 and 1.622 and 1.454 | W41270_DB81_seg11 normalized qRT-PCR result [1, 4]: 1.26 and 2.478 and 1.45 | H31883_DB71_seg13 normalized qRT-PCR result [1, 5]: 0.734 and 0.719 and 0.955 | MUSCYCG1R_DB81_seg19-20 normalized qRT-PCR result [1, 5]: 0.964 and 0.653 and 0.54 | W41270_DB81_seg11 normalized qRT-PCR result [1, 5]: 2.157 and 1.462 and 1.023 | H31883_DB71_seg13 normalized qRT-PCR result [1, 6]: 0.686 and 0.442 and 0.586 | MUSCYCG1R_DB81_seg19-20 normalized qRT-PCR result [1, 6]: 0.669 and 1.434 and 0.785 | W41270_DB81_seg11 normalized qRT-PCR result [1, 6]: 1.613 and 3.226 and 1.604 | H31883_DB71_seg13 normalized qRT-PCR expression (Cyclin-G1 (CCNG1) transcript) [1, 7]: 0.993 and 1.283 and 1.41 and 1.46 and 1.116 | MUSCYCG1R_DB81_seg19-20 normalized qRT-PCR expression [1, 7]: 1.387 and 1.761 and 2.256 and 1.516 and 1.627 and 1.551 | W41270_DB81_seg11 normalized qRT-PCR expression (tumor necrosis factor receptor superfamily, member 12a transcript) [1, 7]: 0.824 and 1.286 and 1.43 and 1.148 and 1.501 and 0.935 | AI045075_DB71_seg6 normalized qRT-PCR expression (Interferon stimulated exonuclease 20 (ISG20) transcript) [1, 8]: 1.248 and 1.348 and 1.319 and 1.844 | H31883_DB71_seg13 normalized qRT-PCR expression (Cyclin-G1 (CCNG1) transcript) [1, 8]: 2.129 and 0.905 and 2.586 and 1.227 and 1.377 | MUSCYCG1R_DB81_seg19-20 normalized qRT-PCR expression [1, 8]: 1.321 and 1.723 and 1.536 and 2.913 and 1.438 | W41270_DB81_seg11 normalized qRT-PCR expression (tumor necrosis factor receptor superfamily, member 12a transcript) [1, 8]: 1.017 and 1.053 and 1.551 and 1.791 and 0.851 | W64472_DB81_seg2 normalized qRT-PCR expression (Interferon stimulated exonuclease 20 (ISG20) transcript) [1, 8]: 2.03 and 2.924 and 1.441 and 3.4 and 2.561 | H31883_DB71_seg13 normalized qRT-PCR expression (Cyclin-G1 (CCNG1) transcript) [1, 9]: 1.328 and 1.54 and 1.434 and 1.642 and 1.611 and 1.408 | MUSCYCG1R_DB81_seg19-20 normalized qRT-PCR expression [1, 9]: 0.985 and 2.342 and 1.437 and 1.991 and 2.105 and 1.779 | W41270_DB81_seg11 normalized qRT-PCR expression (tumor necrosis factor receptor superfamily, member 12a transcript) [1, 9]: 1.263 and 0.73 and 2.381 and 1.44 and 0.652 and 0.787 | Label: true label (Normal/Toxic), known renal toxic effect ([1]; rat, in vivo): Toxic | normalized Real Time PCR MMU09507_DB81_seg15 ([2]; female rats, day1): 0.48 and 0.52 and 0.93 | normalized Real Time PCR MMU09507_DB81_seg15 ([2]; female rats, day5): 2.07 and 1.46 and 1.82 | normalized Real Time PCR MMU09507_DB81_seg15 ([2]; female rats, day28): 4.47 and 2.99 and 2.89 | normalized Real Time PCR MMU09507_DB81_seg15 ([2]; male rats, day1): 0.74 and 0.71 and 0.59 | normalized Real Time PCR MMU09507_DB81_seg15 ([2]; male rats, day5): 1.74 and 1.67 | normalized Real Time PCR MMU09507_DB81_seg15 ([2]; male rats, day28): 3.04 and 2.93 and 2.13 | H33998_DB71_seg19 normalized Real Time PCR [2, 10]: 1.25 and 1.34 and 2.14 and 0.97 and 1.07 and 2.75 | MUSCYCG1R_DB81_seg15-17 normalized Real Time PCR [2, 10]: 1.66 and 1.12 and 1.36 and 0.56 and 0.64 and 0.66 | RATLRFI_DB71_seg9 normalized Real Time PCR [2, 10]: 0.25 and 0.21 and 0.31 and 0.46 and 0.48 and 0.24
